Entries after “also recorded” stand apart in the source; their conditions may differ. Ends that are not written are not given here.
Test system: Aβ1-40 and Aβ1-42 levels
Assay: Aβ1-40 and Aβ1-42 ELISA in brain homogenate fractions and CSF of hAPP Tg mice
Assay type: in vivo, mouse
Method: a) METHODS • i) Introduction • The study was designed to evaluate the efficacy of the test substance (XG-102, SEQ ID NO: 233) on behavioral, biochemical and histological markers using 5 months (±2 weeks) old female hAPP Tg mice. Therefore, mice were treated every two or three weeks up to 4 months and in the end of the treatment period behavior was evaluated in the Morris Water Maze. At sacrifice brain, CSF and blood were collected. Aβ40 and Aβ42 levels were determined in four different brain homogenate fractions as well as in CSF of Tg mice. Plaque load was quantified in the cortex and the hippocampus of 8 Tg animals per treatment group.
iv) Treatment • […] female hAPP transgenic mice were treated with either 0.1 mg/kg b.w./every two weeks or 10 mg/kg b.w./every three weeks of the test substance XG-102 (SEQ ID NO: 233) in two different dosages (n=12/group) or treated with the vehicle (n=12) s.c. once every three weeks over four months.
vi) Tissue Sampling • At the end of the treatment period, and following all behavioral testing, all remaining mice (n=28) were sacrificed. Therefore, all mice were sedated by standard inhalation anesthesia (Isofluran, Baxter) as described in SOP MET030. Cerebrospinal fluid (CSF) was obtained by blunt dissection and exposure of the foramen magnum. Upon exposure, a Pasteur pipette was inserted to the approximate depth of 0.3-1 mm into the foramen magnum. CSF was collected by suctioning and capillary action until flow fully ceases. Two aliquots of each sample were immediately frozen and kept at −80° C. until ready for further analysis with ELISA technique. After CSF sampling, each mouse was placed in dorsal recumbence, thorax was opened and a 26-gauge needle attached to a 1 cc syringe was inserted into the right cardiac ventricular chamber. Light suction was applied to the needle and blood was collected into EDTA and consequently used to obtain plasma. […]
vii) Determination of Aβ1-40 and Aβ1-42 • In four different brain homogenate fractions of each Tg mouse as well as in CSF samples the Aβ1-40 and Aβ1-42 levels were evaluated with ELISA technique. […]

Substance: dqsrpvqpflnIttprkprpprrrqrrkkrg (DQSRPVQPFLNLTTPRKPRPPRRRQRRKKRG; not fully specified (some residues); printed as dqsrpvqpflnIttprkprpprrrqrrkkrg) [XG-102]
- Aβ1-42 levels in Triton X-100 fraction (0.1 mg/kg): a significant reduction compared to the vehicle group; also recorded: a decrease in the Triton X-100 fraction
- CSF Aβ1-40 and Aβ1-42 levels (0.1 and 10 mg/kg): significantly decreased in CSF compared to vehicle group
- brain homogenate Aβ1-40 levels (four brain homogenate fractions): did not affect brain homogenate Aβ1-40 levels

Reference: patent US10023615B2, “Efficient transport into white blood cells” (priority 2008, dated 2018)
